Results on nine molecules are retold here after ChEMBL document CHEMBL1649100, “N-3 Hydroxylation of Pyrimidine-2,4-diones Yields Dual Inhibitors of HIV Reverse Transcriptase and Integrase” (ACS Med Chem Lett, 2011).

Data set [1] deals with Human immunodeficiency virus type 1 reverse transcriptase (Human immunodeficiency virus 1, UniProt Q72547). The data set can be described thus: Inhibition of HIV1 reverse transcriptase.
Data set [2] can be described thus: Inhibition of HIV integrase 3' processing activity expressed in Escherichia coli. Further details: species or system Human immunodeficiency virus.
A short description of data set [3]: Inhibition of HIV integrase strand transfer activity expressed in Escherichia coli. Set-up: species or system Human immunodeficiency virus.
Data set [4] has as its system Human immunodeficiency virus 1. The data set can be described thus: Antiviral activity against HIV1 3B infected in human CEM-SS cells assessed as inhibition of viral replication after 6 days by MTS assay. It is filed as functional, organism-based. Conditions: Human immunodeficiency virus 1, 3B, 144 h.
A short description of data set [5]: Therapeutic index, ratio of CC50 for human CEM-SS cells to EC50 for HIV1 3B. The data set is classed as cell-based. The note with it: read-out: Ratio CC50/EC50.
Data set [6] can be described thus: Cytotoxicity in human CEM-SS cells after 6 days by MTS assay. The data set is classed as cell-based.

The structures appear in SMILES notation.

The term IC50 denotes the concentration that inhibits the measured activity by half. One may read the EC50 as the concentration needed to bring the measured effect to its halfway point. Turning to `CC(C)c1c(Cc2ccccc2)n(COCc2ccccc2)c(=O)n(N)c1=O`, the IC50 in data set [1] is 1.5 µM; in data set [2], greater than 333 µM; in data set [3] it was greater than 333 µM. In addition, in data set [4], the EC50 was greater than 10 µM.
As to `CC(C)c1c(Cc2ccc(F)cc2)n(COCc2ccccc2)c(=O)n(O)c1=O`, the IC50 in data set [1] is greater than 100 µM; in data set [2] it was greater than 333 µM; in data set [3] it was 7.3 µM. Moreover, the EC50 in data set [4] was greater than 10 µM.
On to `CC(C)c1c(Cc2ccc(F)cc2)n(COCc2ccc(F)cc2)c(=O)n(O)c1=O`, for which the IC50 in data set [1] is greater than 100 µM; in data set [2], greater than 333 µM; in data set [3], 5.5 µM. Also, the EC50 in data set [4] was greater than 10 µM.
As a reminder, the CC50 is the concentration that lowers cell viability or growth by half. With `CCOCn1c(Cc2ccccc2)c(C(C)C)c(=O)n(O)c1=O`, the selectivity ratio in data set [5] is greater than 4.7. Also, the IC50 in data set [1] is 13 µM; in data set [2] it was greater than 333 µM; in data set [3] it was 85 µM. In addition, the CC50 at 144 h in data set [6] is greater than 20 µM. Also, the EC50 in data set [4] amounted to 4.3 µM.
As for `CC(C)c1c(Cc2ccccc2)n(COCc2ccccc2)c(=O)[nH]c1=O`, the selectivity ratio in data set [5] is greater than 1500. The results for the IC50 in data set [1], in data set [2] and in data set [3] were 0.04 µM, greater than 333 µM and greater than 333 µM, respectively. The molecule also gave a CC50 at 144 h in data set [6] greater than 20 µM. For the same molecule, the EC50 in data set [4] was found to be 0.013 µM.
For `CC(C)c1c(Cc2ccccc2)n(COCc2ccc(F)cc2)c(=O)n(O)c1=O`, in data set [5], the selectivity ratio is greater than 830. Besides, the IC50 was 0.17 µM in data set [1], greater than 333 µM in data set [2] and 3.5 µM in data set [3]. This molecule yielded a CC50 at 144 h in data set [6] greater than 20 µM. In addition, the half-maximal effective concentration (EC50) in data set [4] turned out to be 0.024 µM.
For `CCOCn1c(Cc2ccc(F)cc2)c(C(C)C)c(=O)n(O)c1=O`, the IC50 in data set [1] is greater than 100 µM; in data set [2], greater than 333 µM; in data set [3], 105 µM. Besides, in data set [4], the EC50 was greater than 10 µM.
With `CC(C)c1c(Cc2ccccc2)n(COCc2ccccc2)c(=O)n(O)c1=O`, the selectivity ratio in data set [5] was greater than 2500. Besides, the values for the IC50 in data set [1], in data set [2] and in data set [3] were 6.2 µM, greater than 333 µM and 21 µM, respectively. This molecule also came in with a CC50 at 144 h in data set [6] greater than 20 µM. The concentration for a half-maximal effect (EC50) in data set [4] amounted to 0.008 µM.
As for `CCc1c(Cc2ccccc2)n(COCc2ccccc2)c(=O)n(O)c1=O`, the selectivity ratio in data set [5] is greater than 18. Moreover, the IC50 was 9.4 µM in data set [1], greater than 333 µM in data set [2] and 8.2 µM in data set [3]. In data set [6], this molecule showed a 50% cytotoxic concentration (CC50) at 144 h greater than 20 µM. Further, the EC50 in data set [4] amounted to 1.1 µM.
